Measured values as given in patent US9517230B2, “Small molecule RNase inhibitors and methods of use” (UNIVERSITY OF ROCHESTER, priority 2011, dated 2016).
pIC50: −log10 of the molar value. Entries after “also recorded” stand apart in the source; their conditions may differ.

How the values were obtained:
MRSA = experiment: Antimicrobial susceptibility testing, broth microdilution (CLSI); assay type: cell-based, Staphylococcus aureus; settings: 18 hr at 37° C.
Description: In some examples, compounds can be further assayed using the Mueller Hinton (MH) broth antibacterial assay as specified by the Clinical and Laboratory Standards Institute MIC broth microdilution protocol (see Methods for Dilution Antimicrobial Susceptibility Tests for Bacteria That Grow Aerobically; Approved Standard, In The Clinical and Laboratory Standards Institute (CLSI, formerly NCCLS), 7th ed., January 2006, 26 (2), M7-A7; see also Performance Standards for Antimicrobial Susceptibility Testing; Eighteenth Informational Supplement, In The Clinical and Laboratory Standards Institute (CLSI, formerly NCCLS), January 2008, 28 (1), M100-S18).
Microtiter plates containing serial dilutions of the compounds 1000 (0, 4, 8, 16, 32, 64, and 128 μg/ml) were inoculated with 10^5 colony forming units (CFU)/ml and incubated for 18 hr at 37° C.

HepG2 human hepatocytes = experiment: HepG2 MTT cytotoxicity assay; assay type: cell-based; settings: 1×, 2×, 4× the MIC value for 48 hours
Procedure: It was then assessed whether RnpA-inhibitory agent concentrations corresponding to the effective bacterial MIC values (10-50 μg/ml) elicited human cell cytotoxicity. HepG2 human hepatocytes (10^5 cells) were seeded in individual wells of a microtitre plate and incubated for 16 hr at 37° C. with 5% carbon dioxide in Dulbecco's Modified Eagle Media supplemented with 10% fetal bovine serum. Cells were then challenged with Mitomycin C (5 or 10 μg/ml; positive control) or 1, 2, or 4 times (1×, 2×, 4×) the MIC value of the indicated RnpA inhibitory compound for 48 hours. Cell viability was measured spectrophotometrically (570 nm) following the addition and subsequent reduction of tetrazolium salt (MTT) within metabolically active cells, as per the manufacturer's recommendations (American Type Culture Collection; Manassas, Va.).

S. aureus RnpA = target: T1, S. aureus RnpA (Staphylococcus aureus, UniProt P0A0H5); experiment: RnpA-mediated RNA (spa mRNA) degradation inhibitory titration assay; assay type: biochemical; settings: for pIC50: 1 pmol spa mRNA, 20 pmol RnpA, one hour at 37° C., agarose gel, read-out: apparent IC50
T1 construct: hexahistidine-tag (pET-30 Ek/LIC leader) (N); made in house; host or cells: E. coli BL21 (DE3)
T1 sequence (P0A0H5 1-117): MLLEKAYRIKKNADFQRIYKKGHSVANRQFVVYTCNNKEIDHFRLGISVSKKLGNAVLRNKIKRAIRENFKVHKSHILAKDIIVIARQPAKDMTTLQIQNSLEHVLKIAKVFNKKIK
Procedure: Specifically, members of the ActiProbe-25K and Natural Product libraries (29,940 compounds total; TimTec Inc.; Newark, Del.) were screened for small molecule inhibitors of S. aureus RnpA mediated total bacterial RNA degradation. All reactions (50 μl) were performed in 96-well format and contained 20 pmol RnpA, 200 ng S. aureus total RNA, and ˜5 μM of each compound in 1× reaction buffer (2 mM NaCl, 2 mM MgCl2, 50 mM Tris-HCl, pH 6.0). Mixtures were incubated at 37° C. for 20 min at which time Quant-iT RiboGreen® (100 μl; Invitrogen) was added to quantify the amount of RNA substrate remaining. Percent enzyme inhibition was calculated as remaining substrate/starting substrate*100. For inhibitory titration assays, 1 pmol of spa mRNA was incubated with 20 pmol RnpA alone (positive control) or in the presence of one of four compounds for one hour at 37° C. […] Following this, 20 μl of each reaction mixture were subjected to electrophoresis in a 1.2% formaldehyde-containing agarose gel and visualized by ethidium bromide staining.

Row | Structure (SMILES) | antimicrobial activity against MRSA (in words) (MRSA) | human cell cytotoxicity / cell survival (in words) (HepG2 human hepatocytes) | human cell cytotoxicity / cell survival (in words) (HepG2 human hepatocytes; listed as ST006630) | inhibition of RnpA-mediated RNA degradation (in words) (S. aureus RnpA) | pIC50 (S. aureus RnpA) | human cell cytotoxicity / cell survival (in words) (HepG2 human hepatocytes; listed as ST003531)
1 | O=C(O)CCN1C(=O)/C(=C\c2ccc(-c3ccc(Cl)cc3)o2)SC1=S [RNPA-3000] | moderate antimicrobial activity; also recorded: good antistaphylococcal activity | do not cause human cytotoxicity | did not affect human cell survival | inhibit RnpA-mediated RNA degradation; also recorded: excellent RnpA-inhibitory activity | 4.70 to 4.90 | –
2 | CC(C)c1ccc(OCC(=O)NNC(=S)NC(=O)c2ccco2)cc1 [RNPA-2000] | moderate antimicrobial activity; also recorded: good antistaphylococcal activity | do not cause human cytotoxicity | – | inhibit RnpA-mediated RNA degradation; also recorded: excellent RnpA-inhibitory activity | 4.70 to 4.82 | did not affect human cell survival
